Key:
Assay type in all cases: functional
[1] = test system: KB; assay: Growth inhibition of human KB cells at 10 uM after 72 hrs by MTS assay; conditions: read-out: GI
[2] = Growth inhibition of human HCT116 cells at 10 uM after 72 hrs by MTS assay; conditions: HCT-116, 72 h, read-out: GI
[3] = test system: MCF7; assay: Growth inhibition of human MCF7 cells at 10 uM after 72 hrs by MTS assay; conditions: MCF7, 72 h, read-out: GI
[4] = Growth inhibition of human HL60 cells at 10 uM after 72 hrs by MTS assay; conditions: HL-60, 72 h, read-out: GI

Structure (SMILES)	inhibition of growth at 10 µM [1] [%]	inhibition of growth at 10 µM [2] [%]	inhibition of growth at 10 µM [3] [%]	inhibition of growth at 10 µM [4] [%]
COC(=O)C1(Cc2cccc(OC)c2)CC(=O)OC1(C)c1ccccc1 (centres undefined)	5	14	16	30
COC(=O)C1(Cc2ccccc2OC)CC(=O)OC1c1cc(OC)c(OC)c(OC)c1 (centres undefined)	6	19	12	22
COC(=O)C1(Cc2ccccc2)CC(=O)OC1(C)c1cc(OC)c(OC)c(OC)c1 (centres undefined)	0	0	2	7
COC(=O)C1(Cc2ccccc2OC)CC(=O)OC1(C)c1ccccc1 (centres undefined)	9	13	10	34
COC(=O)C1(Cc2ccc(OC)cc2)CC(=O)OC1c1ccccc1C(F)(F)F (centres undefined)	31	0	0	23
COC(=O)C1(Cc2ccc(OC)cc2)CC(=O)OC1(C)c1cccc(C(F)(F)F)c1 (centres undefined)	38	30	46	52
COC(=O)C1(Cc2ccc(OC)cc2)CC(=O)OC1c1ccc(F)cc1 (centres undefined)	33	0	4	37
COC(=O)C1(Cc2cccc(OC)c2)CC(=O)OC1c1cc(OC)c(OC)c(OC)c1 (centres undefined)	0	20	13	10
COC(=O)C1(Cc2ccc(C(F)(F)F)cc2)CC(=O)OC1(C)c1ccccc1 (centres undefined)	15	25	19	28
COC(=O)C1(Cc2ccc(OC)cc2)CC(=O)OC1c1cc(OC)c(OC)c(OC)c1 (centres undefined)	16	24	27	32
COC(=O)C1(Cc2ccc(OC)cc2)CC(=O)OC1c1ccco1 (centres undefined)	32	0	0	29
COC(=O)[C@@]1(Cc2ccc(OC)cc2)CC(=O)O[C@]1(C)c1ccccc1	98	56	59	68
COC(=O)C1(Cc2ccccc2C(F)(F)F)CC(=O)OC1c1ccccc1 (centres undefined)	42	25	35	28
COC(=O)C1(Cc2ccccc2)CC(=O)OC1(C)c1cccc(C(F)(F)F)c1 (centres undefined)	34	14	14	20
COC(=O)C1(Cc2cc(OC)c(OC)c(OC)c2)CC(=O)OC1c1ccccc1 (centres undefined)	0	16	1	7
COC(=O)c1ccc(CC2(C(=O)OC)CC(=O)OC2(C)c2ccccc2)cc1 (centres undefined)	22	44	35	43
CCC1(c2ccccc2)OC(=O)CC1(Cc1ccccc1)C(=O)OC (centres undefined)	22	25	12	17
COC(=O)C1(Cc2cccc(OC)c2)CC(=O)OC1c1ccccc1 (centres undefined)	0	14	12	37
COC(=O)C1(Cc2ccc(C(F)(F)F)cc2)CC(=O)OC1c1ccccc1 (centres undefined)	4	4	0	4
COC(=O)C1(Cc2ccccc2)CC(=O)OC1(C)c1ccccc1 (centres undefined)	6	9	13	22
COC(=O)c1ccc(CC2(C(=O)OC)CC(=O)OC2c2ccccc2)cc1 (centres undefined)	12	0	0	19
